The text below walks through data of PubChem BioAssay (NCI).

SMILES strings stand for the structures. “And” between values parts separate entries of the source, which are not always exact repeats. Equal values may be shown once.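 Where inhibition never reached the appropriate level, the endpoint shown equals the highest concentration tested. Otherwise, values were interpolated linearly from a five-concentration, 48-hour dose response in 96-well plates. The concentration for 50% growth inhibition is given as GI50. TGI is the concentration that stops growth completely.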 A value given as a limit tells only on which side of the number the result lay.

Common to all, as to test: NCI anticancer screen, dose series, 48 h
Test [1] concerns MDA-MB-231 breast.
The subject of test [2] is T-47D breast.
Test [3] relates to COLO 205 colon.
Test [4] has as its system SNB-75 CNS.
The test system of test [5] is M14 melanoma.
For test [6], the system named is A498 renal.
In test [7] the test system is HCT-116 colon.
Test [8] relates to CAKI-1 renal.
Test [9] concerns SK-MEL-2 melanoma.
Test [10] deals with SF-268 CNS.
The test system of test [11] is PC-3 prostate.

Consider `COc1ccc(-c2csc3c2[N+]2(C)C=CC=C2C3N2CCCC2)cc1` (stereo not drawn), for which the TGI in test [1] was more than 100 µM; in test [2], 76.1 µM; in test [3], 42.6 µM; in test [4], 36.8 µM; in test [5], more than 100 µM; in test [6] it was more than 100 µM. In addition, the TGI in test [7] was more than 100 µM; in [8], more than 100 µM; in test [9] it was 31.1 µM; in test [10], more than 100 µM; in test [11] it was more than 100 µM.
Consider `CSCCC(NC(=O)C(Cc1c[nH]c2ccccc12)NC(=O)CCNC(=O)OC(C)(C)C)C(=O)NC(CC(=O)O)C(=O)NC(Cc1ccccc1)C(N)=O` (stereo not drawn), for which the TGI in [1], in test [2], in test [3], in test [4], in test [5] and in [6] was more than 50 µM in each case. For the same compound, the TGI in test [7], in [8], in test [9], in test [10] and in [11] was more than 50 µM each time.
Consider `O=S1(=O)N=C(SCc2c[nH]c3ccccc23)N(c2ccccc2)c2ccncc21`, for which the TGI in [1] is more than 100 µM; in test [2] it was more than 100 µM; in test [3] it was more than 100 µM; in test [4], 87.7 µM; in test [5] it was more than 100 µM; in test [6], 82.2 µM. The TGI in [7], in test [8], in test [9], in test [10] and in test [11] was more than 100 µM in each case.
On to `CN1CCC(O)(OC(=O)C(c2ccccc2)C2(O)CCCC2)CC1` (stereo not drawn), for which the TGI in test [1], in [2], in test [3], in [4], in test [5] and in test [6] was more than 100 µM throughout. In addition, the TGI in test [7], in [8], in [9], in test [10] and in test [11] was more than 100 µM throughout.
As for `Cc1oc(N)c(S(=O)(=O)/C(C#N)=C/c2ccccc2[N+](=O)[O-])c1C`, the TGI in test [1] is 82.6 µM; in test [2], 66.8 µM; in [3] it was 40.3 µM; in test [4], more than 100 µM; in test [5] it was 41.4 µM; in test [6], more than 100 µM. The TGI was 78.5 µM in test [7]; 53.9 µM in test [8]; more than 100 µM in [9]; more than 100 µM in test [10]; 99 µM in test [11].
For the compound `C#CCn1c(I)cc2c(c1=O)COC(=O)[C@]2(O)CC`, the TGI in test [1], in test [2], in [3], in [4], in test [5] and in test [6] was more than 100 µM each time. Also, the TGI in test [7], in [8], in test [9], in [10] and in test [11] was more than 100 µM throughout.
Consider `CC(C)(C)c1cc(C(C)(C)C)c(SC2OC(CO)C(O)C(O)C2O)c(O)c1O` (stereo not drawn), for which the TGI in test [1] is 50.9 µM; in [2], 72.4 µM; in test [3], more than 81.4 µM; in test [4] it was 6.05 µM; in test [5], more than 100 µM; in test [6], 34.8 µM. Moreover, the TGI is 29.1 µM in test [7]; more than 84.9 µM in [8]; 25 µM in [9]; 20.4 µM in [10]; 28.3 µM in test [11].
Consider `CC(C)=CC(=O)OC1C2C(C)=CC(=O)C(O)C2(C)C2C3(O)OCC24C(CC(=O)OC14)C(C)C3O` (stereo not drawn), for which the TGI in test [1] is 0.0596 µM and 0.0264 µM; in test [2], 0.0108 µM; in [3] it was 0.359 µM and 1.11 µM and 0.42 µM; in [4], 0.0621 µM and 0.0711 µM and 0.062 µM; in test [5] it was 0.00826 µM; in [6], 0.288 µM and 0.511 µM. For the same compound, the TGI in test [7] was 0.0172 µM and 0.0807 µM; in test [9], 0.0723 µM and 0.0279 µM and 0.0695 µM; in test [10], 0.049 µM and 0.014 µM and 0.091 µM; in test [11] it was 0.0129 µM. Moreover, the GI50 in test [3] is 0.117 µM; in test [4], 0.0338 µM; in test [6] it was 0.142 µM; in test [7] it was 0.02 µM; in test [8] it was 0.245 µM and 1.13 µM and 0.293 µM; in test [9], 0.025 µM. Also, the GI50 in test [10] is 0.0088 µM.
For the compound `O=[N+]([O-])/C(Cl)=C(\NCCO)C(Cl)=C(Cl)Cl`, the TGI is more than 90.7 µM in [1]; 99.8 µM in test [2]; 79.3 µM in [3]; more than 100 µM in test [4]; 77.5 µM in test [5]; more than 100 µM in test [6]. The TGI was 81.5 µM in test [7]; more than 100 µM in test [8]; more than 100 µM in test [9]; more than 100 µM in test [10]; more than 100 µM in test [11].
As for `Cc1c2oc(=O)c(C#N)cc2c2ccccn12`, the TGI in [1], in [2], in [3], in [4], in [5] and in test [6] was more than 100 µM in each case. Also, the TGI in test [7], in test [8], in [9], in test [10] and in [11] was more than 100 µM in each case.
Turning to `Nc1ccnc2c1ncn2[C@H]1C[C@H](O)[C@@H](CO)O1`, the TGI in test [1], in test [2], in test [3], in test [4], in [5] and in test [6] was more than 100 µM each time. The TGI in [7], in test [8], in test [9], in test [10] and in [11] was more than 100 µM each time.
Take `CCC1OC2(C)CC(C#N)(C#N)C1(C#N)C(=N)O2` (stereo not drawn): the TGI in test [1], in test [2], in [3], in test [4], in test [5] and in test [6] was more than 100 µM each time. The TGI in test [7], in [8], in test [9], in test [10] and in [11] was more than 100 µM each time.
